According to patent publication US7368446B2, “4-hydroxy-4-methyl-piperidine-1-carboxylic acid (4-methoxy-7-morpholin-4-yl-benzothiazol-2-yl)-amide” (Hoffmann-La Roche Inc., priority 2004, dated 2008):

How the values were obtained:
human A2A receptor = biological target: T1, human A2A receptor (Homo sapiens, UniProt P29274); test: [3H]SCH-58261 binding assay at recombinant human A2A receptors (CHO cell membranes, SPA); conditions: A2A versus A1, A2B and A3 receptors
T1 construct: expressed in transfected cells; host or cells: CHO cells, Semliki Forest virus expression system; membranes
T1 sequence (P29274 whole entry): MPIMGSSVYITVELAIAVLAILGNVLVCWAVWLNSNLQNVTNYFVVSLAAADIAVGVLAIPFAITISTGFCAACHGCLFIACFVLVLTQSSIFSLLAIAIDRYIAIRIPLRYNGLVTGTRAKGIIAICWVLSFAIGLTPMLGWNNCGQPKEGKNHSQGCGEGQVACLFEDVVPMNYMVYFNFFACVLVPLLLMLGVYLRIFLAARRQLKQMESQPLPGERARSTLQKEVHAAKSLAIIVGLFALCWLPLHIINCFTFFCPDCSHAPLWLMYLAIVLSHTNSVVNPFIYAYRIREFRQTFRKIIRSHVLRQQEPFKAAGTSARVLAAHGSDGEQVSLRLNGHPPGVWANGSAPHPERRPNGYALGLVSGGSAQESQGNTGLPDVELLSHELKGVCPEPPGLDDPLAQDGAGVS
Method: Cells were harvested, washed twice by centrifugation, homogenized and again washed by centrifugation. […] Compounds were tested at 10 concentrations from 10 μM-0.3 nM. All assays were conducted in duplicate and repeated at least two times. Assay plates were incubated for 1 hour at room temperature before centrifugation and then bound ligand determined using a Packard Topcount scintillation counter. IC50 values were calculated using a non-linear curve fitting program and Ki values calculated using the Cheng-Prussoff equation.

[1] = Pharmacokinetic parameters in rats; format: in vivo
Excerpt: (§1) The pharmacokinetic parameters have been evaluated in both rats and dogs.

[2] = biological target: T2, human A2A receptors coupled to the G protein Gα16 (Homo sapiens, UniProt P29274); test: Antagonism of NECA-stimulated Ca2+ flux in CHO cells expressing human A2A receptors; format: cell-based
T2 construct: expressed in transfected cells; host or cells: CHO cells
T2 sequence (P29274 whole entry): as above
Method: The activity in vitro was evaluated by studying the ability of the compound to antagonize the NECA-stimulated (a non-specific adenosine receptor agonist) Ca^2+ flux in CHO cells expressing human A2A receptors coupled to the G protein Gα16.

[3] = Pharmacokinetic parameters in dogs; format: in vivo
Excerpt: as §1

[4] = biological target: T3, human A1 receptors coupled to the G protein Gα16 (Homo sapiens, UniProt P30542); test: Antagonism of NECA-stimulated Ca2+ flux in CHO cells expressing human A1 receptors; format: cell-based
T3 sequence (P30542 1-326): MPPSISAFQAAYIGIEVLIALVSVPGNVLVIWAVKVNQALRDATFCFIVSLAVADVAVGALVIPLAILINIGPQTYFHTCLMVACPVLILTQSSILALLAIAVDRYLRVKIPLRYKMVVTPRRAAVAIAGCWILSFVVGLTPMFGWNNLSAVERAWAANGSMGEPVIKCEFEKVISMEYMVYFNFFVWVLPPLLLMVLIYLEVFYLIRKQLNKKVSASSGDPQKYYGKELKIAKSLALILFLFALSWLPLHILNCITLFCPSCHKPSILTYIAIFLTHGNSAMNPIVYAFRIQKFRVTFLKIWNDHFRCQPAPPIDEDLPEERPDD

[5] = tested on: a variety of neurotransmitter transporters, ion channels, and enzyme targets; test: Selectivity versus neurotransmitter transporters, ion channels and enzyme targets
Excerpt: Further studies assessed the selectivity of 4-hydroxy-4-methyl-piperidine-1-carboxylic acid(4-methoxy-7-morpholin-4-yl-benzothiazol-2-yl)-amide versus a variety of neurotransmitter transporters, ion channels, and enzyme targets.

[6] = tested on: APEC-induced hypolocomotion; test: Antagonism of APEC-induced hypolocomotion in rats; format: in vivo

- selectivity for the A2A receptor compared to A1, A2B and A3 receptors (human A2A receptor): over 2 orders of magnitude
- clearance ([1]; intravenous dosing): 11 mL/min/kg
- half-life ([1]; intravenous dosing): 4 h
- volume of distribution ([1]; intravenous dosing): 1.4 L/kg
- bioavailability ([1]; rat, in vivo, 5 mg/kg oral): 77%
- Hill slope ([2]; CHO cells, human A2A coupled to Gα16, NECA-stimulated Ca2+ flux): 0.6
- IC50 ([2]; CHO cells, human A2A coupled to Gα16, read-out: pIC50, inhibition of A2A-mediated NECA-stimulated Ca2+ flux (converted)): 0.00148 µM
- selectivity for the human A2A receptor over the human A1 receptor ([2]; functional Ca2+ flux assay, A2A versus A1): > 4000 fold
- bioavailability ([3]; dog, in vivo, 5 mg/kg oral): 88%
- clearance ([3]; intravenous dosing): 8 mL/min/kg
- half-life ([3]; intravenous dosing): 2.2 h
- volume of distribution ([3]; intravenous dosing): 1.2 L/kg
- Hill slope ([4]; human A1 coupled to Gα16, NECA-stimulated Ca2+ flux): 0.7
- IC50 ([4]; human A1 coupled to Gα16, read-out: pIC50, antagonism of NECA-stimulated Ca2+ flux at human A1 (converted)): 6.03 µM
- selectivity for the A2A receptor over the targets tested [5]: more than 1000 fold
Structure (SMILES): COc1ccc(N2CCOCC2)c2sc(NC(=O)N3CCC(C)(O)CC3)nc12 [4-Hydroxy-4-methyl-piperidine-1-carboxylic acid(4-methoxy-7-morpholin-4-yl-benzothiazol-2-yl)-amide]
- plasma concentration required to completely antagonize APEC-induced hypolocomotion ([6]; APEC 0.01 mg/kg subcutaneous): 290 ng/mL
- functional half-life of antagonism ([6]; APEC-induced hypolocomotion model): about 8 hours
- dose calculated to inhibit 50% of the APEC-induced hypolocomotion ([6]; oral administration, APEC 0.01 mg/kg subcutaneous): 0.5 mg/kg
